The source of these data is patent US20130045475A1, “2-Nitrobenzyl-Modified Ribonucleotides” (ALERE SAN DIEGO, INC., priority 2004, published 2013).

The target of experiment [1] is T1, T7 RNA polymerase (Escherichia phage T7, UniProt P00573). As to the kind of experiment: Primer extension reactions with RNA/DNA scaffold and T7 RNA polymerase. Type of experiment: biochemical. As to conditions: for extension of the RNA primer of the scaffold: sole nucleotide offered, template encodes rATP then rGTP, FIG. 2B. Also noted: purchased Fermentas. The procedure: The nucleic acid scaffolds were formed by incubating 1 nmol RNA-1 (5′-biotin-AACUGCGGCGAU-3′ (SEQ ID NO:1)) and 1 nmol DNA-1 (5′-[…]-3′ (SEQ ID NO:2)) in 100 μl transcription buffer (200 mM Tris-HCl (pH 7.9 at 25° C.), 30 mM MgCl2, 50 mM DTT, 50 mM NaCl, 10 mM spermidine) for 10 minutes at 70° C. Annealing occurred by slowly lowering the temperature to 25° C. The concentration of hybrid was assumed to be 10 μM.
T1 sequence (P00573 whole entry): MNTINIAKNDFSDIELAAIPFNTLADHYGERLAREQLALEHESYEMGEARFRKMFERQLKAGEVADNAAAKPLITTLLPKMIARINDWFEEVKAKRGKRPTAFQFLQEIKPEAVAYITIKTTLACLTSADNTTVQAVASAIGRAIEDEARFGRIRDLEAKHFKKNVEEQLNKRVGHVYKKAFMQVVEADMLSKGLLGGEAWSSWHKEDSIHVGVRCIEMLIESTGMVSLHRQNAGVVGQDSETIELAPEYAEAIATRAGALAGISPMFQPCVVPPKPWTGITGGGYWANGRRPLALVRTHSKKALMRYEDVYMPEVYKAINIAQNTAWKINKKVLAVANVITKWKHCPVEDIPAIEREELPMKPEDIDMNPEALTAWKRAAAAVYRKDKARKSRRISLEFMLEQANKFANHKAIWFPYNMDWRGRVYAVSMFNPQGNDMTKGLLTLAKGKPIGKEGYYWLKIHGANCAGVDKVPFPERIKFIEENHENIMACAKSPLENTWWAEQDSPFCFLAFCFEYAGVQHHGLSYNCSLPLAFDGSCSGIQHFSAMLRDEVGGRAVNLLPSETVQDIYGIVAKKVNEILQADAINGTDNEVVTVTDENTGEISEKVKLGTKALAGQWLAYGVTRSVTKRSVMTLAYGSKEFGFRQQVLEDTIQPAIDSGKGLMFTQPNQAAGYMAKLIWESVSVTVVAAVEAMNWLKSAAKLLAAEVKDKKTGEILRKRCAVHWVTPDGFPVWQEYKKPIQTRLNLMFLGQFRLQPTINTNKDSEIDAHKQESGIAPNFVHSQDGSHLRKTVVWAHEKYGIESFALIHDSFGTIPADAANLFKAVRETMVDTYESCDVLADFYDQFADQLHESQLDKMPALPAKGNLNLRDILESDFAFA
For the primer extension reactions 2 pmoles of scaffold were mixed with 10 units of T7 RNA polymerase (Fermentas) in 9 μl transcription buffer to allow the transcription complex to form. Reactions were started by the addition of 1 μl of 1 mM nucleotide solution and incubated for 20 minutes at 37° C. Reactions were stopped by addition of 2 μl 500 mM EDTA and cooled on ice. UV irradiation was done for 10 minutes on a UV lamp.
Samples were precipitated, dissolved in formamide loading buffer and resolved on a denaturing 16% polyacrylamide gel (8M urea). Gels were electroblotted onto nylon-membrane (Osmonics, USA) in blotting buffer (0.5×TBE). Blots were incubated in blocking buffer (1×TBSTw/1% blocking reagent (Roche)) for 1 hour at room temperature to avoid non-specific noise, incubated with 0.5 μg/ml streptavidin-HRP (Sigma) in blocking buffer for 1 hour and washed extensively in Tris buffered saline containing 0.1% Tween-20. Detection was performed using a chemiluminescent substrate according to the instructions of the manufacturer (Pierce).

Experiment [2] concerns the target T1, T7 RNA polymerase. The procedure:
The reaction was started by the addition of 20 μl of 10 mM 2′-(2-Nitrobenzyl)-ATP and incubated for 2 hours at 37° C. Subsequently the reaction was split into 4 samples and subjected to deprotection: two samples were exposed to UV irradiation as described above, two untreated samples were incubated for the same period of time at ambient temperature. Deprotection was followed by addition of 1 volume of either extension mix containing 250 μM rNTPs in transcription buffer, or addition of transcription buffer only. Samples were then incubated for another 1 hour at 37° C.
Processing, separation and detection of products was done as described above.

The target of experiment [3] is T1, T7 RNA polymerase. As to conditions: elongation mode complexes on duplex DNA substrates.

Regarding `Nc1ncnc2c1ncn2[C@@H]1O[C@H](COP(=O)(O)OP(=O)(O)OP(=O)(O)O)[C@@H](O)[C@H]1O` [rATP, adenosine 5′-triphosphate], on T7 RNA polymerase [1], the “extension of the RNA primer of the scaffold” value is “extended by one or two bases”.

For the compound `Nc1ncnc2c1ncn2[C@@H]1O[C@H](COP(=O)(O)OP(=O)(O)OP(=O)(O)O)[C@@H](O)[C@H]1OCc1ccccc1[N+](=O)[O-]` [2′-(2-Nitrobenzyl)-ATP], the “reversal of termination on deprotection” value at T7 RNA polymerase [2] (UV irradiation 10 minutes, then 250 μM rNTPs extension mix, 1 hour at 37° C., FIG. 3 lane 4) is “Elongation of the transcript can resume upon removal of the protecting 2-Nitrobenzyl group by UV irradiation”. The termination of transcription result on T7 RNA polymerase [2] (scaffold + T7 RNAP + 2′-(2-Nitrobenzyl)-ATP 2 hours at 37° C., no UV, then rNTPs, FIG. 3 lane 3) is reported as “acts as a bona fide terminator of transcription”. Also, on T7 RNA polymerase [1] (RNA/DNA scaffold, 10 units T7 RNA polymerase, 1 μl of 1 mM nucleotide solution, 20 minutes at 37° C., gel mobility before and after UV), the “incorporation of the nucleotide analog into a growing RNA chain” value is recorded as “incorporation into the nascent RNA chain by T7 RNAP”. At T7 RNA polymerase [3], the “incorporation into a growing RNA chain” value was “we have not observed this activity”.

`Nc1ccn([C@@H]2O[C@H](COP(=O)(O)OP(=O)(O)OP(=O)(O)O)[C@@H](O)[C@H]2O)c(=O)n1` [rCTP, cytidine 5′-triphosphate]: the “extension of the RNA primer of the scaffold” value on T7 RNA polymerase [1] is given as “extension is limited to one base only”.
